Measured values taken from patent US4650788A, “Novel peptides having an immunostimulating action, processes for their preparation and their use” (Hoechst Aktiengesellschaft, priority 1983, dated 1987).
Square brackets hold non-standard residues; d marks the D form. Peptide text beside a SMILES is read from it.

Assays:
[1] = test system: spleen cells of mice (B lymphocytes), in vitro immunization with sheep erythrocytes; experiment: plaque-forming cell test (PFC test); format: cell-based; settings: Dosage 100 ng/substance/1 ml of cell culture; mouse spleen cell culture, 5 days; untreated control 221 ± 30
Procedure: […]. The in vitro immunization is effected with 5×10^7 sheep erythrocytes/ml. The test cell cultures are incubated daily with the corresponding dose of the test substance.
After a running time of 5 days, the cells are centrifuged off and washed with medium RPMI 1640 and the direct PFC test is carried out. For this, the cells are mixed with a 10% sheep erythrocyte suspension in an agarose solution and the mixture is poured onto a flat surface. In the layer of gel formed, the stimulated lymphocytes release antibodies during subsequent incubation, and these diffuse into the environment and attach themselves to the sheep erythrocytes therein. After addition of guinea pig complement, the red blood cells lyse. Light-colored round spots which can be seen with the naked eye form in the reddish-brown gel, i.e. the hemolysis areolas of the plaques. An antibody-producing cell is found in the center of such hemolysis areolas. The number of lymphoid cells which form specific immunoglobulins can consequently be equated with the numbers of plaques found.

[2] = test system: lymphocytes (T cells); experiment: PHA stimulation test (lymphocyte transformation test); format: cell-based; settings: Dosage 100 ng/substance/1 ml of cell culture; 10 μg of PHA/1 ml, 72 hours; untreated control 1.00
Source text: In the PHA stimulation test (PHA=phytohemagglutinin) or the lymphocyte transformation test, conclusions as to the number of mature, i.e. stimulatable, lymphocytes are drawn not via investigation of the surface antigens but by the function test for ability to be stimulated by the plant lectin PHA. The lymphocytes (T cells) are stimulated to […] transformation by the lectin, in the same way as by bacterial or viral antigens. This leads to proliferation, either directly or by the release of lymphokins. The incorporation of the radiolabeled thymidine within a certain time is then a measure of the number of stimulated cells. Only the mature or immunologically potent T cells are stimulated. The influence of a substance on lymphocyte maturation can therefore be monitored with this test. However, the stimulation must be sub-optimum, since other sub-populations of lymphocytes are also stimulated at higher concentrations and the effect can no longer be observed. The peptides to be investigated have been added to the culture medium in various concentrations. They are present throughout the entire duration of the test (up to 72 hours).

Row | Compound | PFC/10^6 cells [1] | PHA stimulation index [2]
1 | CC(C)[C@@H]1NC(=O)[C@H](CCC(=O)O)NC(=O)[C@H](CCCNC(=N)N)NC(=O)[C@@H](CCCCN)NC(=O)[C@H](Cc2ccc(O)cc2)NC1=O [cyclo-(D-Lys--Arg--Glu--Val--Tyr)] (cyclo(EVY[dK]R)) | 317 ± 41 PFC/10^6 cells | 1.15
2 | CC(C)[C@H]1NC(=O)[C@H](CCC(=O)O)NC(=O)[C@H](CCCCN)NC(=O)[C@H](CCCNC(=N)N)NC(=O)[C@H](Cc2ccc(O)cc2)NC1=O [cyclo-(Arg--Lys--Glu--D-Val--Tyr), cyclo-(Arg-Lys-Glu-D-Val-Tyr).2 HOAc] (cyclo(E[dV]YRK)) | 687 ± 73 PFC/10^6 cells | 1.92
3 | CC(C)[C@H]1NC(=O)[C@H](CC(=O)O)NC(=O)[C@H](CCCCN)NC(=O)[C@H](CCCNC(=N)N)NC(=O)[C@H](Cc2ccc(O)cc2)NC1=O [cyclo-(Arg--Lys--Asp--D-Val--Tyr), cyclo-(Arg-Lys-Asp-D-Val-Tyr).2HOAc] (cyclo(D[dV]YRK)) | 401 ± 64 PFC/10^6 cells | 1.69
4 | CC(C)[C@H]1NC(=O)[C@H](CC(=O)O)NC(=O)[C@H](CCCCN)NC(=O)[C@H](CCCNC(=N)N)NC(=O)[C@H](Cc2c[nH]c3ccccc23)NC1=O [cyclo-(Arg--Lys--Asp--D-Val--Trp)] (cyclo(D[dV]WRK)) | 312 ± 58 PFC/10^6 cells | 
5 | CC(C)[C@H]1NC(=O)[C@H](CCC(=O)O)NC(=O)[C@H](CCCCN)NC(=O)[C@H](CCCNC(=N)N)NC(=O)[C@H](Cc2c[nH]c3ccccc23)NC1=O [cyclo-(Arg--Lys--Glu--D-Val--Trp)] (cyclo(E[dV]WRK)) | 369 ± 54 PFC/10^6 cells | 1.25
6 | CC(C)[C@@H]1NC(=O)[C@H](CC(=O)O)NC(=O)[C@H](CCCNC(=N)N)NC(=O)[C@@H](CCCCN)NC(=O)[C@H](Cc2ccc(O)cc2)NC1=O [cyclo-(D-Lys--Arg--Asp--Val--Tyr)] (cyclo(DVY[dK]R)) | 341 ± 43 PFC/10^6 cells | 
7 | CC(C)[C@@H]1NC(=O)[C@H](CCC(=O)O)NC(=O)[C@H](CCCCN)NC(=O)[C@H](CCCNC(=N)N)NC(=O)[C@@H](Cc2ccccc2)NC1=O [cyclo-(Arg--Lys--Glu--Val--D-Phe)] (cyclo(EV[dF]RK)) | 250 ± 31 PFC/10^6 cells | 
